Assay results: US9693997B2, “Antiviral compounds” (priority 2013, dated 2017)
Counter-ions that a name gives are not always drawn. Like-named read-outs stand apart in the source and are kept apart here.

How the values were obtained:
[1] = test system: pseudotyped VSV G particles (VSVpp) in Huh7-high CD81 cells; assay: microbe, parasite or virus in culture; assay type: cell-based, vesicular stomatitis virus
[2] = test system: Pseudotyped HCV GT1b particles (HCVpp), entry into Huh7-high CD81 cells; assay: microbe, parasite or virus in culture; assay type: cell-based, HCV GT1b Con1 strain
[3] = Vesicular stomatitis virus, 72 h, read-out: VSVpp (EC50, μM)
[4] = Hepatitis C virus, GT1B, 72 h, read-out: HCVpp GT-1b (EC50, μM)

SMILES | EC50 [1, 3] | EC50 [2, 4] | EC50 ([1]; read-out: VSVpp (EC50)) | EC50 ([2]; read-out: HCVpp GT-1b (EC50))
CS(=O)(=O)c1cccc(-c2c(Cl)cc(Nc3n[nH]c(N)n3)cc2C(F)(F)F)c1 [Compound 195, N3-(2-chloro-3′-(methylsulfonyl)-6-(trifluoromethyl)biphenyl-4-yl)-1H-1,2,4-triazole-3,5-diamine] | 39.7 µM | 0.212 µM | – | –
CN(C(C)(C)C)S(=O)(=O)c1cccc(-c2c(Cl)cc(Nc3n[nH]c(N)n3)cc2C(F)(F)F)c1 [Compound 196, 4′-(5-amino-1H-1,2,4-triazol-3-ylamino)-N-tert-butyl-2′-chloro-N-methyl-6′-(trifluoromethyl)biphenyl-3-sulfonamide] | > 10 µM | 0.126 µM | – | –
Nc1nc(Nc2cc(Cl)c(-c3cccc(S(N)(=O)=O)c3)c(C(F)(F)F)c2)n[nH]1 [Compound 197, 4′-(5-amino-1H-1,2,4-triazol-3-ylamino)-2′-chloro-6′-(trifluoromethyl)biphenyl-3-sulfonamide 2,2,2-trifluoroacetate] | > 10 µM | 0.249 µM | – | –
CN(C)S(=O)(=O)c1cccc(-c2c(Cl)cc(Nc3n[nH]c(N)n3)cc2C(F)(F)F)c1 [Compound 198, 4′-(5-amino-1H-1,2,4-triazol-3-ylamino)-2′-chloro-N,N-dimethyl-6′-(trifluoromethyl)biphenyl-3-sulfonamide] | 21.3 µM | 0.268 µM | – | –
CS(=O)(=O)NCc1cccc(-c2c(Cl)cc(Nc3n[nH]c(N)n3)cc2C(F)(F)F)c1 [Compound 199, N-((4′-(5-amino-1H-1,2,4-triazol-3-ylamino)-2′-chloro-6′-(trifluoromethyl)biphenyl-3-yl)methyl)methanesulfonamide] | 31.8 µM | 0.196 µM | – | –
CC(C)(C)OC(=O)c1ccc(-c2c(Cl)cc(Nc3n[nH]c(N)n3)cc2C(F)(F)F)cc1 [Compound 200, tert-butyl 4′-(5-amino-1H-1,2,4-triazol-3-ylamino)-2′-chloro-6′-(trifluoromethyl)biphenyl-4-carboxylate] | > 10 µM | 0.574 µM | – | –
Nc1nc(Nc2cc(Cl)c(-c3ccccc3)c(C(F)(F)F)c2)n[nH]1 [Compound 201, N3-(2-chloro-6-(trifluoromethyl)biphenyl-4-yl)-1H-1,2,4-triazole-3,5-diamine 2,2,2-trifluoroacetate] | 58.3 µM | 0.405 µM | – | –
Nc1nc(Nc2cc(Cl)c(-c3ccc(C(=O)O)cc3)c(C(F)(F)F)c2)n[nH]1 [Compound 202, 4′-(5-amino-1H-1,2,4-triazol-3-ylamino)-2′-chloro-6′-(trifluoromethyl)biphenyl-4-carboxylic acid 2,2,2-trifluoroacetate] | > 10 µM | 1.25 µM | – | –
COc1ccc(-c2c(Cl)cc(Nc3n[nH]c(N)n3)cc2C(F)(F)F)cc1S(=O)(=O)N1CCCC1 [Compound 203, N3-(2-chloro-4′-methoxy-3′-(pyrrolidin-1-ylsulfonyl)-6-(trifluoromethyl)biphenyl-4-yl)-1H-] | 10.6 µM | 0.008 µM | – | –
COc1ccc(-c2c(Cl)cc(Nc3n[nH]c(N)n3)cc2C(F)(F)F)cc1S(=O)(=O)NC1CCNCC1 [Compound 204, 4′-(5-amino-1H-1,2,4-triazol-3-ylamino)-2′-chloro-4-methoxy-N-(piperidin-4-yl)-6′-(trifluoromethyl)biphenyl-3-sulfonamide hydrochloride] | > 10 µM | 0.011 µM | – | –
CC1(NS(=O)(=O)c2ccc(-c3c(Cl)cc(Nc4n[nH]c(N)n4)cc3C(F)(F)F)cc2)CN(C(=O)OC(C)(C)C)C1 [Compound 205, tert-butyl 3-(4′-(5-amino-1H-1,2,4-triazol-3-ylamino)-2′-chloro-6′-(trifluoromethyl)biphenyl-4-ylsulfonamido)-3-methylazetidine-1-carboxylate] | 9.26 µM | 0.011 µM | – | –
CC1(NS(=O)(=O)c2ccc(-c3c(Cl)cc(Nc4n[nH]c(N)n4)cc3C(F)(F)F)cc2)CC1 [Compound 206, 4′-(5-amino-1H-1,2,4-triazol-3-ylamino)-2′-chloro-N-(1-methylcyclopropyl)-6′-(trifluoromethyl)biphenyl-4-sulfonamide] | 9.62 µM | 0.017 µM | – | –
CC1(NS(=O)(=O)c2ccc(-c3c(Cl)cc(Nc4n[nH]c(N)n4)cc3C(F)(F)F)cc2)CNC1 [Compound 207, 4′-(5-amino-1H-1,2,4-triazol-3-ylamino)-2′-chloro-N-(3-methylazetidin-3-yl)-6′-(trifluoromethyl)biphenyl-4-sulfonamide hydrochloride] | > 10 µM | 0.029 µM | – | –
CC(C)(C)OC(=O)N1CCN(S(=O)(=O)c2ccc(-c3c(Cl)cc(Nc4n[nH]c(N)n4)cc3C(F)(F)F)cc2)C2(CC2)C1 [Compound 208, tert-butyl 4-(4′-(5-amino-1H-1,2,4-triazol-3-ylamino)-2′-chloro-6′-(trifluoromethyl)biphenyl-4-ylsulfonyl)-4,7-diazaspiro[2.5]octane-7-carboxylate] | > 10 µM | 0.049 µM | – | –
CN(CCNS(=O)(=O)c1ccc(-c2c(Cl)cc(Nc3n[nH]c(N)n3)cc2C(F)(F)F)cc1)C(=O)OC(C)(C)C [Compound 209, tert-butyl 2-(4′-(5-amino-1H-1,2,4-triazol-3-ylamino)-2′-chloro-6′-(trifluoromethyl)biphenyl-4-ylsulfonamido)ethyl(methyl)carbamate] | 7.09 µM | 0.005 µM | – | –
CC(C)N1CC(C)(NS(=O)(=O)c2ccc(-c3c(Cl)cc(Nc4n[nH]c(N)n4)cc3C(F)(F)F)cc2)C1 [Compound 210, 4′-(5-amino-1H-1,2,4-triazol-3-ylamino)-2′-chloro-N-(1-isopropyl-3-methylazetidin-3-yl)-6′-(trifluoromethyl)biphenyl-4-sulfonamide hydrochloride] | 4.41 µM | 0.021 µM | – | –
CC(C)N1CC(C)(NS(=O)(=O)c2ccc(-c3c(Cl)cc(Nc4n[nH]c(N)n4)cc3C(F)(F)F)cc2)C1 [Compound 211, 4′-(5-amino-1H-1,2,4-triazol-3-ylamino)-2′-chloro-N-(1-isopropyl-3-methylazetidin-3-yl)-6′-(trifluoromethyl)biphenyl-4-sulfonamide; compound with trifluoro-acetic acid] | – | – | 3.65 µM | 0.012 µM
COc1ccc(-c2c(Cl)cc(Nc3n[nH]c(N)n3)cc2C(F)(F)F)cc1S(=O)(=O)NC1(C)CN(C(=O)OC(C)(C)C)C1 [Compound 212, tert-butyl 3-(4′-(5-amino-1H-1,2,4-triazol-3-ylamino)-2′-chloro-4-methoxy-6′-(trifluoromethyl)biphenyl-3-ylsulfonamido)-3-methylazetidine-1-carboxylate] | 1.42 µM | 0.005 µM | – | –
CNCCNS(=O)(=O)c1ccc(-c2c(Cl)cc(Nc3n[nH]c(N)n3)cc2C(F)(F)F)cc1 [Compound 213, 4′-(5-amino-1H-1,2,4-triazol-3-ylamino)-2′-chloro-N-(2-(methylamino)ethyl)-6′-(trifluoromethyl)biphenyl-4-sulfonamide hydrochloride] | > 10 µM | 0.062 µM | – | –
Nc1nc(Nc2cc(Cl)c(-c3ccc(S(=O)(=O)N4CCNCC45CC5)cc3)c(C(F)(F)F)c2)n[nH]1 [Compound 214, N3-(4′-(4,7-diazaspiro[2.5]octan-4-ylsulfonyl)-2-chloro-6-(trifluoromethyl)biphenyl-4-yl)-1H-1,2,4-triazole-3,5-diamine hydrochloride] | 3.36 µM | 0.048 µM | – | –
COc1ccc(-c2c(Cl)cc(Nc3n[nH]c(N)n3)cc2C(F)(F)F)cc1S(=O)(=O)NC1(C)CNC1 [Compound 215, 4′-(5-amino-1H-1,2,4-triazol-3-ylamino)-2′-chloro-4-methoxy-N-(3-methylazetidin-3-yl)-6′-(trifluoromethyl)biphenyl-3-sulfonamide hydrochloride] | > 10 µM | 0.111 µM | – | –
COc1ccc(-c2c(Cl)cc(Nc3n[nH]c(N)n3)cc2C(F)(F)F)cc1S(=O)(=O)NC(C)(C)C [Compound 216, 4′-(5-Amino-1H-[1,2,4]triazol-3-ylamino)-6′-chloro-4-methoxy-2′-trifluoromethyl-biphenyl-3-sulfonic acid tert-butylamide] | 6.48 µM | 0.004 µM | – | –
Nc1nc(Nc2cc(Cl)c(-c3ccc(S(=O)(=O)N4CCCC4)cc3)c(Cl)c2)n[nH]1 [Compound 220, N*3*-[2,6-Dichloro-4′-(pyrrolidine-1-sulfonyl)-biphenyl-4-yl]-1H-[1,2,4]triazole-3,5-diamine] | 24.8 µM | 0.028 µM | – | –
COc1ccc(-c2c(Cl)cc(Nc3n[nH]c(N)n3)cc2C(F)(F)F)cc1S(=O)(=O)NC1CCN(C(=O)OC(C)(C)C)CC1 [Compound 221, 4-[4′-(5-Amino-1H-[1,2,4]triazol-3-ylamino)-6′-chloro-4-methoxy-2′-trifluoromethyl-biphenyl-3-sulfonylamino]-piperidine-1-carboxylic acid tert-butyl ester] | 4.55 µM | 0.003 µM | – | –
CC(C)(C)N(CC(F)(F)F)S(=O)(=O)c1ccc(-c2c(Cl)cc(Nc3n[nH]c(N)n3)cc2C(F)(F)F)cc1 [Compound 223, 4′-(5-Amino-1H-[1,2,4]triazol-3-ylamino)-6′-chloro-2′-trifluoromethyl-biphenyl-4-sulfonic acid tert-butyl-(2,2,2-trifluoro-ethyl)-amide] | 9.8 µM | 0.029 µM | – | –
Nc1nc(Nc2cc(Cl)c(-c3ccc(S(=O)(=O)N4CC(F)(F)C4)cc3)c(C(F)(F)F)c2)n[nH]1 [Compound 224, N*3*-[6-Chloro-4′-(3,3-difluoro-azetidine-1-sulfonyl)-2-trifluoromethyl-biphenyl-4-yl]-1H-[1,2,4]triazole-3,5-diamine] | 4.57 µM | 0.02 µM | – | –
COc1ccc(-c2c(Cl)cc(Nc3n[nH]c(N)n3)cc2C(F)(F)F)cc1S(=O)(=O)NC1(C#N)CC1 [Compound 225] | > 10 µM | 0.031 µM | – | –
